This is an account of results in ChEMBL document CHEMBL1201862, “PubChem BioAssay data set” (2004).

The target in test [1] is T1, DNA dC->dU-editing enzyme APOBEC-3G (Homo sapiens, UniProt Q9HC16). The test is described as follows: Dose Response confirmation of small molecule APOBEC3G DNA Deaminase Inhibitors via a fluorescence-based single-stranded DNA deaminase assay. [Related pubchem assays (depositor defined):AID493012, AID493028]. The format is functional.
The target of test [2] is T2, DNA dC->dU-editing enzyme APOBEC-3A (Homo sapiens, UniProt P31941). The test can be described thus: APOBEC3A DNA deaminase inhibitors, dose response, biochemical (AID 504722). Type of test: functional.
For test [3], the target named is Eukaryotic translation initiation factor 4E (Mus musculus, UniProt P63073). The test can be described thus: eIF4E–eIF4G protein interaction inhibitors, dose response, biochemical, TR-FRET (AID 855).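 Note: potency for disrupting eIF4E binding to eIF4GI seen as loss of FRET.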 Type of test: functional.
A further test addresses Cytochrome P450 3A4 (Homo sapiens, UniProt P08684).
Test [4] is described as follows: inhibitors of Bluetongue virus cytopathic effect, confirmation, arbovirus, BSR cells (AID 1250).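 Note: protection from viral cytopathic effect measured as cell viability by ATP luminescence.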 Type of test: functional.
Test [5] concerns the target Peroxisome proliferator-activated receptor gamma/Nuclear receptor corepressor 2 (Homo sapiens, UniProt P37231+Q9Y618). Type of test: functional.
For test [6], the target named is Photoreceptor-specific nuclear receptor (Homo sapiens, UniProt Q9Y5X4). Type of test: functional.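 Note: potency for compounds that break the NR2E3 corepressor complex and count as activators.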
Test [7] in a line: cytotoxicity in HEK-293T cells, dose response, cytotoxicity control for BCR NF-kB inhibitor project, luminescence, B-cell screen hits (AID 489021).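 Note: HEK-293T cells carrying an NF-kB luciferase reporter; cells exposed to compound for about 14 hours before viability readout.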 Type of test: functional, cell-based.
Test [8] concerns the target Intestinal-type alkaline phosphatase (Homo sapiens, UniProt P09923). The test is described as follows: Dose Response confirmation of uHTS hits from a small molecule inhibitors of human intestinal alkaline phosphatase via a luminescent assay. [Related pubchem assays (depositor defined):AID2544, AID2574]. The format is functional.
The target in a further test is CAAX prenyl protease 2 (Saccharomyces cerevisiae S288c, UniProt Q03530). The format is biochemical.
Another test has as its target Trypsin (Sus scrofa, UniProt P00761). The test is described as follows: porcine trypsin inhibitors, dose response, selectivity assay for Rce1 protease inhibitor project, biochemical, quenched peptide fluorescence, cherry-pick (AID 488789).
In test [9] the target is T3, Alkaline phosphatase, tissue-nonspecific isozyme (Homo sapiens, UniProt P05186).
T3 sequence (P05186 whole entry): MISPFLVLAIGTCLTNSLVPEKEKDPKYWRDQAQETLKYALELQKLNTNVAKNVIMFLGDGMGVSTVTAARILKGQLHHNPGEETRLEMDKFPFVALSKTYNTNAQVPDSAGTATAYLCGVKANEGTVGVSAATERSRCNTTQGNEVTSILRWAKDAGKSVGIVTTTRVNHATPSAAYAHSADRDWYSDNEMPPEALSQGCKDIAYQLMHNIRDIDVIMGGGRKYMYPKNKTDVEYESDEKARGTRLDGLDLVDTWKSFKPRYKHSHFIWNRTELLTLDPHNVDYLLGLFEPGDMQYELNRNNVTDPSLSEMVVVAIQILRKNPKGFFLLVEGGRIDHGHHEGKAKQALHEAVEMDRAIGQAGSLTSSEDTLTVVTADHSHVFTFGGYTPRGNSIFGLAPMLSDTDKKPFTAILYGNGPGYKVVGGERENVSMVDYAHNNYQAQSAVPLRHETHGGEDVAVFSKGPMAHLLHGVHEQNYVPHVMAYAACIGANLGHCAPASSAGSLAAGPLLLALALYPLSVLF
The test is described as follows: human TNAP enzyme inhibitors, SAR follow-up, biochemical, luminescent, dose response (AID 1056).

The target in test [10] is Glyceraldehyde-3-phosphate dehydrogenase (Homo sapiens, UniProt P04406).
The subject of another test is H4. The test is described as follows: Luminescence Cell-Based Dose Response HTS to Identify Activators of 5'UTR Stem-Loop Driven Prion Protein mRNA Translation in H4 Neuroglioblastoma Cells. [Related pubchem assays: 1829 (Project Summary), 1814 (Primary HTS)]. Particulars: Homo sapiens. The format is functional.
The target in test [11] is T2, DNA dC->dU-editing enzyme APOBEC-3A. The test is described as follows: Dose Response confirmation of small molecule APOBEC3A DNA Deaminase Inhibitors via a fluorescence-based single-stranded DNA deaminase assay. [Related pubchem assays (depositor defined):AID493011, AID493024]. The format is functional.
A short description of test [12]: Luminescence Cell-Based Dose Confirmation HTS to Identify Activators of 5'UTR Stem-Loop Driven Alpha-Synuclein mRNA Translation in H4 Neuroglioblastoma Cells. [Related pubchem assays: 1829 (Project Summary), 1814 (Primary HTS)]. The format is functional.
For the next test, the target named is T4, Estrogen receptor (Homo sapiens, UniProt P03372).
T4 sequence (P03372 whole entry): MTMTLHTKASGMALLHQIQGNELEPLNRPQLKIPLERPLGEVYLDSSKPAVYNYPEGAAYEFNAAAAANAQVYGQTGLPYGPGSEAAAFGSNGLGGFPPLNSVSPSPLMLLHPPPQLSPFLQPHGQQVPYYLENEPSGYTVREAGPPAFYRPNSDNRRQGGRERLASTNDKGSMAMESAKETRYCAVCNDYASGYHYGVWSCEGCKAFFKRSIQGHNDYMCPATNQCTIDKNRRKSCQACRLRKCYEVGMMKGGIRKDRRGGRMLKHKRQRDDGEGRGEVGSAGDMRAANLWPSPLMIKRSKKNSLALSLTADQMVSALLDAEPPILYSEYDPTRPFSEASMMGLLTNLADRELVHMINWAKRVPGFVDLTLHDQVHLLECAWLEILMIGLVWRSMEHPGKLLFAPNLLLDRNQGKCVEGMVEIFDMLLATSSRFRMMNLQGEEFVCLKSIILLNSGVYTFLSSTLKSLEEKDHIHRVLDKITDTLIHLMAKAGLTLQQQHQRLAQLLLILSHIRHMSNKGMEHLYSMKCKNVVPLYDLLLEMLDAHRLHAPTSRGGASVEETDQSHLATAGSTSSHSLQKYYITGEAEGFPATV
The test can be described thus: potentiators of ERα–SRC-1 coactivator binding, dose response, biochemical, TR-FRET, ERα LBD (AID 737).

Test [13] deals with T1, DNA dC->dU-editing enzyme APOBEC-3G. Type of test: functional.
Test [14] in a line: Luminescence Cell-Based Dose Response HTS to Identify Activators of Luciferase Translation or Activity in H4 […] Cells. [Related pubchem assays: 1829 (Project Summary), 1814 (Primary HTS)]. The format is functional.
The target in test [15] is T5, Rac GTPase-activating protein 1 (Homo sapiens, UniProt Q9H0H5).
T5 sequence (Q9H0H5 whole entry): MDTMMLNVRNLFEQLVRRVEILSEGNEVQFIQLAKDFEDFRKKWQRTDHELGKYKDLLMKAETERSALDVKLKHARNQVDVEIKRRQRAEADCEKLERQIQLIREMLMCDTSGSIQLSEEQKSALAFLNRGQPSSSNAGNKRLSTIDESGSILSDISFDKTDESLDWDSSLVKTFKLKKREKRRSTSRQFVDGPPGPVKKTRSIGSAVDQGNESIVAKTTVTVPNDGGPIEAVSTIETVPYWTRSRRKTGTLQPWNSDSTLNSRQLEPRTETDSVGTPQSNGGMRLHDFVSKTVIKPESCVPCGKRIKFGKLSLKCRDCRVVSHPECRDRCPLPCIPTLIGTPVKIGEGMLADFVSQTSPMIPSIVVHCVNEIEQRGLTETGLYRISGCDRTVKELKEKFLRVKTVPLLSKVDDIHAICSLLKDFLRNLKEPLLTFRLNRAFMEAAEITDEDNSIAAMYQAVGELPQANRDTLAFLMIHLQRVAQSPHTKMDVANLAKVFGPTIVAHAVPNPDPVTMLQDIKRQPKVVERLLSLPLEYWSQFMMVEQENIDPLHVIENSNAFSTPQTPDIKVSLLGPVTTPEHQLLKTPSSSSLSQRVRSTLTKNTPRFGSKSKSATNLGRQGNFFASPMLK
The test is described as follows: MgcRacGAP GTPase-activating activity inhibitors, confirmation, biochemical, ADP Hunter fluorescence, primary and confirmatory (AID 624330). The format is functional.

The target of test [16] is Induced myeloid leukemia cell differentiation protein Mcl-1 (Homo sapiens, UniProt Q07820). The format is functional.
Another test has as its system Trypanosoma cruzi. The test can be described thus: growth inhibition of intracellular Trypanosoma cruzi, dose response, cell-based, plate reader, dry powder, set 3 (AID 493197). Type of test: functional.
The target of test [17] is Glucose-6-phosphate 1-dehydrogenase (Homo sapiens, UniProt P11413). The test is described as follows: human G6PD enzyme inhibitors, dose response, selectivity assay for P. falciparum G6PD inhibitor project, biochemical, fluorescence (AID 504792). The format is functional.
Test [18] concerns the target T6, Eukaryotic translation initiation factor 2-alpha kinase 3 (Homo sapiens, UniProt Q9NZJ5).
T6 sequence (Q9NZJ5 whole entry): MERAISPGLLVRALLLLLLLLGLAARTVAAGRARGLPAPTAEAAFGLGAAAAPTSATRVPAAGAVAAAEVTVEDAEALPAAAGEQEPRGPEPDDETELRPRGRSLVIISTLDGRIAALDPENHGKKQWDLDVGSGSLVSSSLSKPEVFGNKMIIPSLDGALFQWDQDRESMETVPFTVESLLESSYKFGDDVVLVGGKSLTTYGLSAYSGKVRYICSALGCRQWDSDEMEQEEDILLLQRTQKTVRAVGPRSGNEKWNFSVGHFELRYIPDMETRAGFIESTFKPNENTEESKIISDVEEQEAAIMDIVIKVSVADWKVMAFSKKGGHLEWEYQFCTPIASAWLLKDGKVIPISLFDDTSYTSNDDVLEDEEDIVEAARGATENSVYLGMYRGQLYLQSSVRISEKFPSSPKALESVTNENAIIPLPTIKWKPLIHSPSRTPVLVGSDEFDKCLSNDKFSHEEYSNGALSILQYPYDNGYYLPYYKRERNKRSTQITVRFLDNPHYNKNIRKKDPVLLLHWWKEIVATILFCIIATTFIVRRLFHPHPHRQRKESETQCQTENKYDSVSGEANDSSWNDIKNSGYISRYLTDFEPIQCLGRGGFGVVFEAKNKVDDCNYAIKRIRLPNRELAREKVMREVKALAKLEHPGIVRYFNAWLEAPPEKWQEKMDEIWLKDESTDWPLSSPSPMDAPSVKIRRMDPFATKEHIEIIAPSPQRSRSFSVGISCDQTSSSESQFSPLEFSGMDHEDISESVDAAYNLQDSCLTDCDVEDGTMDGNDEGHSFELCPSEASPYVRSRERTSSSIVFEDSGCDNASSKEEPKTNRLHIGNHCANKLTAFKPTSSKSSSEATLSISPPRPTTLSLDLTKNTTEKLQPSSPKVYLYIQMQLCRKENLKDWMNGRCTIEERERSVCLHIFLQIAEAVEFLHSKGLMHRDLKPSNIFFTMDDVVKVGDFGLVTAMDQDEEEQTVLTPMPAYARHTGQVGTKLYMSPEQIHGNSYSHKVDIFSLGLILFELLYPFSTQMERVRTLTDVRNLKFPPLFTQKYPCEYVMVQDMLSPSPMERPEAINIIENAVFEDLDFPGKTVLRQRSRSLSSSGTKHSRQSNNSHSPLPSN
The test is described as follows: Dose response cell-based high-throughput screening assay to measure PERK inhibition. [Related pubchem assays: 1416 ]. The format is functional.

Test [19] has as its target T6, Eukaryotic translation initiation factor 2-alpha kinase 3. The test can be described thus: Counterscreen assay for PERK inhibitors: Dose response cell-based high throughput screening assay to measure inhibition of PERK at 6 hours. [Related pubchem assays: 1522, 1416 ]. The format is functional.

SMILES strings stand for the structures. Activity calls are given as the source filed them. Where only a bound is given, the exact number is not on record here.

T1 sequence (Q9HC16 whole entry): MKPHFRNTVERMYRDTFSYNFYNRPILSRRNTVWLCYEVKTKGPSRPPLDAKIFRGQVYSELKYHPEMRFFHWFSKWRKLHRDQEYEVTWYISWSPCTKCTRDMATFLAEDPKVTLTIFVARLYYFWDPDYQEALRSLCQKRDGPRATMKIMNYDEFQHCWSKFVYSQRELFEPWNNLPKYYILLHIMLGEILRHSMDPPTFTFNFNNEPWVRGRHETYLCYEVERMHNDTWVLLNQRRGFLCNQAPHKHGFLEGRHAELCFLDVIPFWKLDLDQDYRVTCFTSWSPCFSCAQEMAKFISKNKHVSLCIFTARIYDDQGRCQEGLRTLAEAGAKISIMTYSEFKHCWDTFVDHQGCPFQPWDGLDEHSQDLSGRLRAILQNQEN
T2 sequence (P31941 whole entry): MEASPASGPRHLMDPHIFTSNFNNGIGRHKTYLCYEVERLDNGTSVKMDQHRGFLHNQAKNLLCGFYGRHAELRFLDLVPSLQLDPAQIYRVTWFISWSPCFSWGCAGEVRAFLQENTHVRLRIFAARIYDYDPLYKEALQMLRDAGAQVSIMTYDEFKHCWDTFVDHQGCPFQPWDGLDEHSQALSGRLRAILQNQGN
Chain of Eukaryotic translation initiation factor 4E (P63073 whole entry): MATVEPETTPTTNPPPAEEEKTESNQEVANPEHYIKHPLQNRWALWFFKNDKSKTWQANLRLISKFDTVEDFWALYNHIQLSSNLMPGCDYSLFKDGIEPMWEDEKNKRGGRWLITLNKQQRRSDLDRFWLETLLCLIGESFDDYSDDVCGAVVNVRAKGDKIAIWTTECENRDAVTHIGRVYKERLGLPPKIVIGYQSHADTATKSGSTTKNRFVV
Chain of Cytochrome P450 3A4 (P08684 whole entry): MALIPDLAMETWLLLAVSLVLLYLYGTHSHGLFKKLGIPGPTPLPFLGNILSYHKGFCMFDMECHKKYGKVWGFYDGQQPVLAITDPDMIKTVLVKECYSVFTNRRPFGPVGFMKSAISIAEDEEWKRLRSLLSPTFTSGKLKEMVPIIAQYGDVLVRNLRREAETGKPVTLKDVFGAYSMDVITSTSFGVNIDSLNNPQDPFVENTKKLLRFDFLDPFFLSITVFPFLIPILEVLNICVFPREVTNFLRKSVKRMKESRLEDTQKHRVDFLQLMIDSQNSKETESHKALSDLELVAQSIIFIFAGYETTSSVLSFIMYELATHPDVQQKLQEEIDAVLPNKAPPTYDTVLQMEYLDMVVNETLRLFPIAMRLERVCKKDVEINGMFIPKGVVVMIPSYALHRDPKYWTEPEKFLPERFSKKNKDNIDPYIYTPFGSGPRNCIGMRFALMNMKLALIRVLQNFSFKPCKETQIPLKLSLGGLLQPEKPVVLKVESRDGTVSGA
Chain of Glyceraldehyde-3-phosphate dehydrogenase (P04406 whole entry): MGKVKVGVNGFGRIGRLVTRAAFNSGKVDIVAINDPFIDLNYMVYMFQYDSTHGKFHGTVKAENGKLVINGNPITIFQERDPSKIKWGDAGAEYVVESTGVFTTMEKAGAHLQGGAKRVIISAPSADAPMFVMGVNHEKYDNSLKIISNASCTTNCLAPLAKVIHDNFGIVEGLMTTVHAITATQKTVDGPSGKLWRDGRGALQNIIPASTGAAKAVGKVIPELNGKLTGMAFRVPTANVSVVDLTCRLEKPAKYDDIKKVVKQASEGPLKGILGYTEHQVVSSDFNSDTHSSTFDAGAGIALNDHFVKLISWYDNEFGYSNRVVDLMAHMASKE
Chain of CAAX prenyl protease 2 (Q03530 whole entry): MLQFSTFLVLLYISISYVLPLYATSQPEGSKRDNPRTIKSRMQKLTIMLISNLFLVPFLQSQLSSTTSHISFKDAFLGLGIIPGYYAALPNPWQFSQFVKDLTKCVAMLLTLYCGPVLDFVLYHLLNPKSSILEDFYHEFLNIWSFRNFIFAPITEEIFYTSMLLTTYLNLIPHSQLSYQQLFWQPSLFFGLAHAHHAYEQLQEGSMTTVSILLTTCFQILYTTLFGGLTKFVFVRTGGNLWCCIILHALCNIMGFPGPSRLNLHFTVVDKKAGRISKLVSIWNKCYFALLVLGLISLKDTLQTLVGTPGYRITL
Chain of Induced myeloid leukemia cell differentiation protein Mcl-1 (Q07820 whole entry): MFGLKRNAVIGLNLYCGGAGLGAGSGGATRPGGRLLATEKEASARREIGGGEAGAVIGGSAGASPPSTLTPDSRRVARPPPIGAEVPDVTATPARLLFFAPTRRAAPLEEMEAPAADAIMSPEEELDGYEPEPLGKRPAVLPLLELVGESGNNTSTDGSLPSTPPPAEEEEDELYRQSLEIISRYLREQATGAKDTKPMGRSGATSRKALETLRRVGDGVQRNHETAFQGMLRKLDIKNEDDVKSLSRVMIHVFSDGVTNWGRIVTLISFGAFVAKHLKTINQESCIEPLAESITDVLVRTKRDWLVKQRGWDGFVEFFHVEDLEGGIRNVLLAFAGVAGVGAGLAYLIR
Chain of Photoreceptor-specific nuclear receptor (Q9Y5X4 whole entry): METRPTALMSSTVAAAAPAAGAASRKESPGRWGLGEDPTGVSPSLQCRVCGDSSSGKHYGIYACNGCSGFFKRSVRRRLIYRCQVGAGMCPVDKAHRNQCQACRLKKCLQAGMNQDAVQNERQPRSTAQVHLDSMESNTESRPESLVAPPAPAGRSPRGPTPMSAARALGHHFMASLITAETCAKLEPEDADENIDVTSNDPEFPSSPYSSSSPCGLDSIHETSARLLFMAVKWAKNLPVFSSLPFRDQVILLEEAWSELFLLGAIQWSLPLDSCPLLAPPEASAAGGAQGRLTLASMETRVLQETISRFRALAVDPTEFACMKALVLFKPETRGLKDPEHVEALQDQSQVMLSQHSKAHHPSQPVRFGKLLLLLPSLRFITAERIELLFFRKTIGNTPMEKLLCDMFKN
Chain of Trypsin (P00761 whole entry): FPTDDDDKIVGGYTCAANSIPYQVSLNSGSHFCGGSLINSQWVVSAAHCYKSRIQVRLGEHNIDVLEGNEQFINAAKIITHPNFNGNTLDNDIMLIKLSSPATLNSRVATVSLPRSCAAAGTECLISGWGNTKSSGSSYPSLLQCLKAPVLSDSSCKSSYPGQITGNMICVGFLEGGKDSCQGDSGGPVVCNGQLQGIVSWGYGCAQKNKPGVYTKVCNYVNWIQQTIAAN
Chain of Intestinal-type alkaline phosphatase (P09923 whole entry): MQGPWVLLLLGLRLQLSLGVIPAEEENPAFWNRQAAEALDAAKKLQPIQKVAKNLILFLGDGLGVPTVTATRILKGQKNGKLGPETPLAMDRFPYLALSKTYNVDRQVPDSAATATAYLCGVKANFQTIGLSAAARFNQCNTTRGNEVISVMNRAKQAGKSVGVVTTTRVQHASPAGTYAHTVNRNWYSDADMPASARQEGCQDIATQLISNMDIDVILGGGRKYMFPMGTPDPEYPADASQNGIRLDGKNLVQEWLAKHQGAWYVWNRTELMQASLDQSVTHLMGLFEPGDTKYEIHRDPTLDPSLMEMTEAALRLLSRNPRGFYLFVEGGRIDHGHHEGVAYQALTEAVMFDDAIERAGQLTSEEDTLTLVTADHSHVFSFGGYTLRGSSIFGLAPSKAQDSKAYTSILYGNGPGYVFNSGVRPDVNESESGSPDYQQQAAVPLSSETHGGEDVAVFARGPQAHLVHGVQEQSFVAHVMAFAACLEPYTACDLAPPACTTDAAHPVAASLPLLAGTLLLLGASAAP
Chain of Glucose-6-phosphate 1-dehydrogenase (P11413 whole entry): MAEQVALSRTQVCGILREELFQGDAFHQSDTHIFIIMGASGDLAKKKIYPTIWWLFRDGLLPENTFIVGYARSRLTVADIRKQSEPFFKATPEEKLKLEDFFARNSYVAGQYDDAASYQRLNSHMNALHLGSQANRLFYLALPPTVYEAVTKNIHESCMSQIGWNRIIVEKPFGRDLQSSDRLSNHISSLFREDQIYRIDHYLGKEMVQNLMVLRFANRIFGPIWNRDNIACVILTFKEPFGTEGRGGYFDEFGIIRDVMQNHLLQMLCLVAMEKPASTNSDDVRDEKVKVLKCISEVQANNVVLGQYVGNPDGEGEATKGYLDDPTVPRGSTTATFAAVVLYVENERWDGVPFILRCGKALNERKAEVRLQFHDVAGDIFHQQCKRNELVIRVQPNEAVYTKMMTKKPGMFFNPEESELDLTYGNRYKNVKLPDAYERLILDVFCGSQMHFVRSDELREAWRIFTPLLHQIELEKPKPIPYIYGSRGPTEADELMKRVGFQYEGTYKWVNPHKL

`Cc1ccc(-c2cn3c(S)nnc3s2)cc1`: the IC50 in test [1] is 2.61 µM (active); in test [2], > 100 µM (inactive).
In the case of `CSc1cccc(NC(=S)N(Cc2ccc(C)cc2)Cc2cccnc2)c1`, the IC50 in test [3] is 50 µM (inactive).
Regarding `C=CCSc1nc(O)c2sc3nc(C)cc(C)c3c2n1`, the AC50 at Cytochrome P450 3A4 is 11.2 µM (inconclusive). The IC50 in test [4] is 25.4 µM (active).
With `COCCCN1C(=O)C(O)=C(C(=O)c2ccc(C)o2)C1c1cccc(Br)c1` (stereo unspecified), the IC50 is 11.1 µM (not active) in [5] and > 39.8 µM (not active) in [6].
Take `O=c1oc(-c2cccs2)nc2scc(-c3cccs3)c12`: in [4], the IC50 is 24.2 µM (active).
As for `COC(=O)c1c(NC(=O)c2cccc([N+](=O)[O-])c2)sc(C(N)=O)c1C`, the IC50 in test [7] was > 80 µM (inactive).
Regarding `COc1ccc(CCN2C(=O)c3ccncc3C2=O)cc1OC`, the IC50 in test [8] is > 100 µM (inactive).
For the compound `COC(=O)c1cnn2c3c(c(C)nc12)CCCC3`, the AC50 was 10.3 µM (active) at CAAX prenyl protease 2 and 8.29 µM (active) at Trypsin.
For `COc1ccccc1C(=O)Nc1cnc2ccccc2c1`, the IC50 in test [9] is > 10 µM (inactive); in [10], > 10 µM (inconclusive).
For `CCn1c(SCC(=O)Nc2cccc(F)c2)nnc1-c1cc2cc(Br)ccc2o1`, the EC50 is > 120 µM (not active) with H4, > 120 µM (not active) in test [12], 11.1 µM (active) at Estrogen receptor and 10.8 µM (active) in test [14]. Further, the IC50 in [11] is 2.82 µM (active); in test [13], 5.3 µM (active).
As for `O=C1C=CC(=Nc2nc(O)c(-c3c(O)[nH]c4ccccc34)s2)C=C1`, the IC50 in test [15] is 59.2 µM (active); in test [16], 1.67 µM (active); in test [3], 50 µM (inactive).
For the compound `CN(Cc1ccccc1)C(=O)C1CCCN(Cc2ccccc2)C1` (stereo unspecified), the AC50 in the test with Trypanosoma cruzi was 5.07 µM (active).
For the compound `COc1cc(/C=N/n2cc(-c3ccccc3)nc2S)cc(OC)c1O`, the IC50 in test [1] was 5.9 µM (active); in test [17], > 80 µM (inactive); in test [2], > 100 µM (inactive).
In the case of `N/C(=N\N=C\c1ccc([N+](=O)[O-])cc1)c1nonc1N`, the EC50 in test [18] and in test [19] was > 55.7 µM (not active) in each case.
With `C/C(=N/N=C1\SCC(=O)N1c1ccccc1)c1ccc(C)cc1`, the EC50 in [18] and in test [19] was > 55.7 µM (not active) in each case.
